# Measurements from US20080076786A1, “USE OF RADICAL-SCAVENGING COMPOUNDS FOR TREATMENT AND PREVENTION OF NO-DEPENDENT MICROCIRCULATION DISORDERS” (priority 2001, published 2008).
# How the values were obtained:
# NO Synthetase = NO Synthetase knock-out mice, NO synthetase activity blocked or partially inhibited; assay type: in vivo; settings: NO Synthetase activity blocked or reduced; compared with pravastatin on elevating NO production
# stroke risk = settings: ESPS-2, compared with low-dose aspirin / aspirin alone; cited from earlier work
# [1] = system: oxygen radicals and proteinuria; settings: experimental animals with aminonucleoside nephropathy; cited from earlier work
# lipid peroxidation = settings: human nonneoplastic lung tissue; cited from earlier work
# [2] = system: reoccurrence of myocardial infarcts (MI); settings: chronic application, published meta analysis; cited from earlier work
smiles,measurement,setting,value
"OCCN(CCO)c1nc(N2CCCCC2)c2nc(N(CCO)CCO)nc(N3CCCCC3)c2n1 [Dipyridamole, 2,6-bis(diethanolamino)-4,8-dipiperidino-pyrimido[5,4-d]pyrimidine]",effect of NO sparing (preventing NO destruction),NO Synthetase,seen as independent effect
same,reduction of stroke risk,stroke risk,as effective as low-dose aspirin
same,oxygen radicals and proteinuria,[1],suppress oxygen radicals and proteinuria
same,lipid peroxidation,lipid peroxidation,Inhibition of lipid peroxidation
"CC(=O)Oc1ccccc1C(=O)O [Aspirin, acetyl salicylic acid]",reduction of the incidence of reoccurrence of myocardial infarcts,[2],18%
